# Values quoted from earlier work as cited in patent US11452734B2, “Method of treating and preventing secondary hyperparathyroidism” (OPKO IRELAND GLOBAL HOLDINGS, LTD., priority 2006, dated 2022).
# Biological target: T1, Vitamin D receptors (VDR) (Homo sapiens, UniProt P11473)
# T1 sequence (P11473 1-427): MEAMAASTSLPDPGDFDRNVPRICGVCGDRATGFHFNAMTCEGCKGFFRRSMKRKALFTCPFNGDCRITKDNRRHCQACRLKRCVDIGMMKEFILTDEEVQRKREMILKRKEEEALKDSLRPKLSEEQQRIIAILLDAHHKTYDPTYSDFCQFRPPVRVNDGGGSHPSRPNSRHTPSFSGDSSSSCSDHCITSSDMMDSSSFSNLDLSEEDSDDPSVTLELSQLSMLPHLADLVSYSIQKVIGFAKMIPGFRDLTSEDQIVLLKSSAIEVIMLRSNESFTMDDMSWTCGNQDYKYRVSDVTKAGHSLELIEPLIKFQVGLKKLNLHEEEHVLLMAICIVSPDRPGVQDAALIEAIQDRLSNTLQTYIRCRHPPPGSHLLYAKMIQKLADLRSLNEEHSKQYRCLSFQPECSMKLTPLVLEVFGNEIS
row,"affinities for the VDR, compared among the three Vitamin D hormones",SMILES
1,nearly identical,"C=C1/C(=C\C=C2/CCC[C@]3(C)[C@@H]([C@H](C)/C=C/[C@@](C)(O)C(C)C)CC[C@@H]23)C[C@@H](O)C[C@@H]1O [1α,24(S)-dihydroxyvitamin D2]"
2,nearly identical,"C=C1/C(=C\C=C2/CCC[C@]3(C)[C@@H]([C@H](C)/C=C/[C@H](C)C(C)(C)O)CC[C@@H]23)C[C@@H](O)C[C@@H]1O [1α,25-dihydroxyvitamin D2]"
